Publication PMC6479402, “Anti-Herpetic, Anti-Dengue and Antineoplastic Activities of Simple and Heterocycle-Fused Derivatives of Terpenyl-1,4-Naphthoquinone and 1,4-Anthraquinone” (Molecules, 2019)
Like-named read-outs stand apart in the source and are kept apart here.

Key:
HeLa = test: MTT cytotoxicity assay; assay type: cell-based; conditions: Homo sapiens, HeLa ATCC CRL-1958, 48 h, read-out: IC50 ± SD, HeLa
Experimental: (§1) Then, each diluted molecule was added to the cells and incubated for further 48 h at 37 °C, 5% CO2. […] The DMSO was then added to dissolve the formed formazan crystals and absorbance was determined spectrophotometrically at 570 nm. […] IC50 values were expressed as the mean ± standard deviation (M ± SD) of two independent experiments done in quadruplicate.

Jurkat = test: MTT cytotoxicity assay; assay type: cell-based; conditions: Homo sapiens, Jurkat ATCC TIB-152, 48 h, read-out: IC50 ± SD, Jurkat
Experimental: as §1

Vero = test: MTT cytotoxicity assay, non-tumor cells; assay type: cell-based, Cercopithecus aethiops; conditions: Chlorocebus sabaeus
Experimental: The in vitro cytotoxicity evaluation of quinones was performed using the 3-(4,5 dimethylthiazol-2-yl)-2,5-diphenyltetrazolium bromide (MTT, Sigma, Cream Ridge, NJ, USA) assay as described by Betancur-Galvis et al. 2002 [22]. Briefly, Vero and HeLa cell lines were seeded at 2.0 × 10^3 cells per well of 96-well plates in DMEM supplemented with 10% of inactivated FBS, and were incubated for 24 h at 37 °C, 5% CO2. Then, each diluted molecule was added to the cells and incubated for further 48 h at 37 °C, 5% CO2. Jurkat cell line at 3 × 10^3 cells per well in a 96-well round-bottomed plate and diluted substances in RPMI-1640 medium (Sigma) supplemented with 10% FBS were plated simultaneously. After 48 h of treatment at 37 °C, 5% CO2, the media was carefully removed and 28 µL of MTT solution (4 mg/mL) was added to each well, and the plates were incubated for 2 h at 37 °C, 5% CO2. The DMSO was then added to dissolve the formed formazan crystals and absorbance was determined spectrophotometrically at 570 nm.
The minimal dilution of compound that caused 50% inhibition of the cells (IC50) was calculated by linear regression analysis of the dose-response curves generated from the absorbance data with the statistical GraphPad Prisma 5.0. IC50 values were expressed as the mean ± standard deviation (M ± SD) of two independent experiments done in quadruplicate.

DENV-2 [1] = test: Plaque reduction assay, simultaneous and post-infection treatment, BHK-21 cells; assay type: cell-based, Dengue virus type 2; conditions: post-infective stages, ribavirin 3.7 µg/mL
Experimental: To define the stage of the viral replicative cycle where NQ 4 exerts its action, simultaneous and post-infection treatments against HHV-1 and HHV-2 were performed. […] First, we determined the inhibitory concentration 50% (IC50) for the compound and drug positive controls on infected cells and their effects on non-tumoral Vero cells, to define the concentration of evaluation and to calculate the antiviral selectivity index (SI). Then, the concentration of NQ 4 that reduced the number of viral plaques by 50% (EC50) was determined from the dose-response curves.
Against DENV, the effect of NQ 4 either simultaneously or post-infection was also evaluated by the plaque reduction assay as previously described. Concentrations employed for this assay were from 0.4 µg/mL to 1.6 µg/mL. In this test, BHK-21 cell monolayers grown in 24-well plates were infected with 100 PFU/well of DENV-2 and treatments were performed in the same way to describe for Herpesviruses. Moreover, the monolayers were incubated for 6 days, fixed and stained with a solution of 3.5% formaldehyde with 0.2% crystal violet, and the viral plaques were counted. Heparin (H) was included as a positive control in the simultaneous assay, and ribavirin (R) was the positive control in after infection treatment.

DENV-2 [2] = tested on: DENV-2; parameters: method as in PMID 20837762; conditions: low concentrations; cited from earlier work
[3] = Vero ATCC CCL-81, 48 h, MTT, read-out: IC50 ± SD, Vero

**Q.** For `Cc1cc(C)c2c3c(oc2c1)C(=O)c1cc(CCCC(C)C)ccc1C3=O` [HetQ 20], which IC50 (HeLa) is on record?
**A.** Its IC50 is > 69.3 µM.

**Q.** And the IC50 (Jurkat)?
**A.** The IC50 was 42.2 ± 0.7 µM.

**Q.** And the IC50 (Vero; [3])?
**A.** The IC50 was 153 ± 4.5 µM.

**Q.** What does the source list for `CC(C)CCCc1ccc2c(c1)C(=O)C(Br)=C(Br)C2=O` [NQ 5]?
**A.** IC50 (HeLa): 19.7 ± 0.3 µM; IC50 (Jurkat): 23.5 ± 1.7 µM; IC50 (Vero; [3]): 15.7 ± 2.7 µM

**Q.** For `Cc1c2c(nc3ccccc13)C(=O)c1cc(CCCC(C)C)ccc1C2=O` [HetQ 21], which IC50 (HeLa) is on record?
**A.** Its IC50 is > 69.9 µM.

**Q.** What about the IC50 (Jurkat) of the same molecule?
**A.** Its IC50 is > 69.9 µM.

**Q.** For `NC(=O)c1ncn([C@@H]2O[C@H](CO)[C@@H](O)[C@H]2O)n1` [ribavirin, reference compound], which “Antiviral activity in post-infection treatment, DENV-2” value (DENV-2 [1]) is on record?
**A.** Its value is “active”.

**Q.** And the IC50 (Vero; non-tumoral Vero cells, data not shown, read-out: IC50 on Vero cells)?
**A.** The IC50 was > 400 µg/mL.

**Q.** Which results are given for `Cc1ccc2[nH]c3c(c2c1)C(=O)c1ccc(CCCC(C)C)cc1C3=O` [HetQ 19]?
**A.** IC50 (HeLa): 77 ± 1.9 µM; IC50 (Jurkat): > 72.4 µM; IC50 (Vero; [3]): 212 ± 8.6 µM

**Q.** With `COc1cccc2c1C(=O)c1c(O)c3c(c(O)c1C2=O)C[C@@](O)(C(=O)CO)C[C@@H]3O[C@H]1C[C@H](N)[C@H](O)[C@H](C)O1` [Doxorubicin, doxorubicin, reference compound] as the molecule, how does the IC50 (HeLa) read?
**A.** Its IC50 is 0.9 ± 0.1 µM.

**Q.** And the IC50 (Jurkat)?
**A.** Its IC50 is 0.1 ± 0.01 µM.

**Q.** And the IC50 (Vero; [3])?
**A.** Its IC50 is 2 ± 0.1 µM.

**Q.** And the “Activity against DENV-2 at very early stages of the viral replication cycle” value (DENV-2 [2])?
**A.** The value was “active”.
